Values after ≈ are worked out from the molar mass of the structure shown. Values belong to the molecule of their own block, whether it stands above or below them. Active and inactive are the calls of the source. No cut-off for these calls is given here.
Assays:
[1] = tested on: SH-SY5Y; test: Antiproliferative activity against Homo sapiens (human) SH-SY5Y cells at 5 uM compound photoirradiated for 20 min followed by 24 hr incubation by WST-1 assay; type: functional, cell-based
[2] = tested on: HeLa; test: Cytotoxicity against Homo sapiens (human) HeLa cells compound at 1 to 30 uM after 24 hr by LDH release assay; type: functional, cell-based
[3] = tested on: U-87MG ATCC; test: Cytotoxicity against Homo sapiens (human) U87 cells compound photoirradiated for 20 min followed by 24 hr incubation by LDH release assay; type: functional, cell-based
[4] = tested on: SH-SY5Y; test: Cytotoxicity against Homo sapiens (human) SH-SY5Y cells at 30 uM compound photoirradiated for 20 min followed by 24 hr incubation by LDH release assay; type: functional, cell-based
[5] = tested on: Bacillus subtilis; test: Antibacterial activity against Bacillus subtilis ATCC 6633 after 24 hr by two-fold serial dilution method; type: functional; details: ATCC 6633, 24 h
[6] = tested on: SH-SY5Y; test: Cytotoxicity against Homo sapiens (human) SH-SY5Y cells at 1 to 30 uM after 24 hr by LDH release assay; type: functional, cell-based
[7] = tested on: Pseudomonas aeruginosa; test: Antibacterial activity against Pseudomonas aeruginosa ATCC 27853 compound photoirradiated for 20 min followed by 24 hr incubation by two-fold serial dilution method; type: functional; details: ATCC 27853, light or radiation study
[8] = tested on: Bacillus subtilis; test: Antibacterial activity against Bacillus subtilis ATCC 6633 compound photoirradiated for 20 min followed by 24 hr incubation by two-fold serial dilution method; type: functional; details: ATCC 6633, light or radiation study
[9] = tested on: U-87MG ATCC; test: Antiproliferative activity against Homo sapiens (human) U87 cells at 5 uM after 24 hr by WST-1 assay; type: functional, cell-based
[10] = tested on: HeLa; test: Antiproliferative activity against Homo sapiens (human) HeLa cells at 5 uM compound photoirradiated for 20 min followed by 24 hr incubation by WST-1 assay; type: functional, cell-based
[11] = tested on: HeLa; test: Antiproliferative activity against Homo sapiens (human) HeLa cells at 5 uM after 24 hr by WST-1 assay; type: functional, cell-based
[12] = tested on: Escherichia coli; test: Antibacterial activity against Escherichia coli ATCC 25922 after 24 hr by two-fold serial dilution method; type: functional; details: ATCC 25922, 24 h
[13] = tested on: U-87MG ATCC; test: Antiproliferative activity against Homo sapiens (human) U87 cells at 5 uM compound photoirradiated for 20 min followed by 24 hr incubation by WST-1 assay; type: functional, cell-based
[14] = tested on: U-87MG ATCC; test: Cytotoxicity against Homo sapiens (human) U87 cells at 1 to 30 uM after 24 hr by LDH release assay; type: functional, cell-based
[15] = tested on: U-87MG ATCC; test: Cytotoxicity against Homo sapiens (human) U87 cells at 30 uM compound photoirradiated for 20 min followed by 24 hr incubation by LDH release assay; type: functional, cell-based
[16] = tested on: Pseudomonas aeruginosa; test: Bacteriostatic activity against Pseudomonas aeruginosa ATCC 27853 after 24 hr by two-fold serial dilution method; type: functional, organism-based
[17] = tested on: Bacillus subtilis; test: Antibacterial activity against Bacillus subtilis ATCC 6633 at 16 ug/ml compound photoirradiated for 20 min followed by 24 hr incubation by two-fold serial dilution method; type: functional, organism-based
[18] = tested on: Pseudomonas aeruginosa; test: Antibacterial activity against Pseudomonas aeruginosa ATCC 27853 after 24 hr by two-fold serial dilution method; type: functional; details: ATCC 27853, 24 h
[19] = tested on: HeLa; test: Cytotoxicity against Homo sapiens (human) HeLa cells at 30 uM compound photoirradiated for 20 min followed by 24 hr incubation by LDH release assay; type: functional, cell-based
[20] = tested on: Escherichia coli; test: Antibacterial activity against Escherichia coli ATCC 25922 compound photoirradiated for 20 min followed by 24 hr incubation by two-fold serial dilution method; type: functional; details: ATCC 25922, light or radiation study
[21] = tested on: Bacillus subtilis; test: Antibacterial activity against Bacillus subtilis ATCC 6633 at 16 ug/ml after 24 hr by two-fold serial dilution method; type: functional, organism-based
[22] = tested on: SH-SY5Y; test: Antiproliferative activity against Homo sapiens (human) SH-SY5Y cells at 5 uM after 24 hr by WST-1 assay; type: functional, cell-based
[23] = tested on: HeLa; test: Cytotoxicity against Homo sapiens (human) HeLa cells compound photoirradiated for 20 min followed by 24 hr incubation by LDH release assay; type: functional, cell-based
[24] = tested on: SH-SY5Y; test: Cytotoxicity against Homo sapiens (human) SH-SY5Y cells compound photoirradiated for 20 min followed by 24 hr incubation by LDH release assay; type: functional, cell-based

- MIC [5]: 100 µg/mL (≈ 178 µM)
- MIC [7]: 128 µg/mL (≈ 227 µM)
- MIC [8]: 80 µg/mL (≈ 142 µM)
- MIC [12]: 128 µg/mL (≈ 227 µM)
- MIC [18]: 128 µg/mL (≈ 227 µM)
- MIC [20]: 128 µg/mL (≈ 227 µM)
SMILES: C=CC1=C(C)c2cc3[nH]c(cc4nc(cc5[nH]c(cc1n2)c(C)c5CCC(=O)O)C(CCC(=O)O)=C4C)c(C)c3C=C [PROTOPORPHYRIN]
- Activity [1]: Active
- Activity [2]: inactive
- Activity [3]: Dose-dependent effect
- Activity [4]: inactive
- Activity [6]: inactive
- Activity [9]: inactive
- Activity [10]: Active
- Activity [11]: inactive
- Activity [13]: Active
- Activity [14]: inactive
- Activity [15]: inactive
- Activity [16]: Active
- Activity [17]: inactive
- Activity [19]: inactive
- Activity [21]: Active
- Activity [22]: inactive
- Activity [23]: Dose-dependent effect
- Activity [24]: Dose-dependent effect

SMILES: NC[C@H]1O[C@H](O[C@H]2[C@H](O)[C@@H](O[C@H]3O[C@H](CO)[C@@H](O)[C@H](N)[C@H]3O)[C@H](N)C[C@@H]2N)[C@H](O)[C@@H](O)[C@@H]1O [KANAMYCIN]
- MIC [5]: > 256 µg/mL
- MIC [12]: 16 µg/mL (≈ 33 µM)
- MIC [18]: 2 µg/mL (≈ 4.13 µM)

- MIC [5]: 100 µg/mL (≈ 120 µM)
- MIC [7]: 128 µg/mL (≈ 154 µM)
- MIC [8]: 80 µg/mL (≈ 96 µM)
- MIC [12]: 128 µg/mL (≈ 154 µM)
- MIC [18]: 128 µg/mL (≈ 154 µM)
- MIC [20]: 128 µg/mL (≈ 154 µM)
SMILES: C=Cc1c(C)c2cc3[nH]c(cc4nc(cc5nc(cc1[nH]2)C(C)=C5CCC(=O)NCCc1ccc(O)c(O)c1)C(CCC(=O)NCCc1ccc(O)c(O)c1)=C4C)c(C)c3C=C
- Activity [1]: Active
- Activity [2]: inactive
- Activity [3]: Dose-dependent effect
- Activity [4]: inactive
- Activity [6]: inactive
- Activity [9]: inactive
- Activity [10]: Active
- Activity [11]: inactive
- Activity [13]: Active
- Activity [14]: inactive
- Activity [15]: inactive
- Activity [16]: Active
- Activity [17]: inactive
- Activity [19]: inactive
- Activity [21]: Active
- Activity [22]: inactive
- Activity [23]: Dose-dependent effect
- Activity [24]: Dose-dependent effect

SMILES: CC1(C)S[C@@H]2[C@H](NC(=O)[C@H](N)c3ccccc3)C(=O)N2[C@H]1C(=O)O [AMPICILLIN]
- MIC [5]: > 256 µg/mL
- MIC [12]: > 256 µg/mL
- MIC [18]: 128 µg/mL (≈ 366 µM)

SMILES: CN(C)[C@@H]1C(O)=C(C(N)=O)C(=O)[C@@]2(O)C(O)=C3C(=O)c4c(O)cccc4[C@@](C)(O)[C@H]3C[C@@H]12 [TETRACYCLINE]
- MIC [5]: 8 µg/mL (≈ 18 µM)
- MIC [12]: 2 µg/mL (≈ 4.5 µM)
- MIC [18]: 1 µg/mL (≈ 2.25 µM)

SMILES: CC[C@H]1OC(=O)[C@H](C)[C@@H](O[C@H]2C[C@@](C)(OC)[C@@H](O)[C@H](C)O2)[C@H](C)[C@@H](O[C@@H]2O[C@H](C)C[C@H](N(C)C)[C@H]2O)[C@](C)(O)C[C@@H](C)C(=O)[C@H](C)[C@@H](O)[C@]1(C)O [ERYTHROMYCIN]
- MIC [5]: < 0.125 µg/mL
- MIC [12]: 128 µg/mL (≈ 174 µM)
- MIC [18]: < 0.125 µg/mL

- MIC [5]: 16 µg/mL (≈ 27.5 µM)
- MIC [12]: > 256 µg/mL
- MIC [18]: 64 µg/mL (≈ 110 µM)
SMILES: CN[C@@H]1[C@H](O[C@H]2[C@H](O[C@H]3[C@H](O)[C@@H](O)[C@H](N=C(N)N)[C@@H](O)[C@@H]3N=C(N)N)O[C@@H](C)[C@]2(O)C=O)O[C@@H](CO)[C@H](O)[C@H]1O [STREPTOMYCIN]

SMILES: CCn1cc(C(=O)O)c(=O)c2ccc(C)nc21 [NALIDIXIC ACID]
- MIC [5]: 8 µg/mL (≈ 34.4 µM)
- MIC [12]: 16 µg/mL (≈ 68.9 µM)
- MIC [18]: 2 µg/mL (≈ 8.61 µM)
